# Species: Rattus norvegicus
# Test: Convulsant activity in Sprague-Dawley rat assessed as partial pressure in atmosphere at which convulsion takes place
# Assay type: functional
row,Compound,log(1/CON)
1,FC(F)(Cl)OC(F)(Cl)C(F)(F)F (centres undefined),0.71
2,CC(F)(F)C(F)(F)F,0.02
3,FC(F)(F)COC(F)(F)Cl,1.63
4,FC(F)(F)C(F)(Cl)C(F)(F)F,-0.26
5,FC(F)OC(F)(Cl)C(F)(F)F (centres undefined),0.84
6,FC(F)(F)C(F)(F)C(F)(F)C(F)(F)Br,0.59
7,FC(F)(Cl)C(F)(Cl)C(F)(Cl)C(F)(F)Cl (centres undefined),2.52
8,FC(F)(Cl)C(F)(Cl)C(F)(F)Cl,1.31
9,FC(F)(Br)C(F)(F)C(F)(F)C(F)(F)Br,1.86
10,FC(F)C(F)(F)C(F)(F)C(F)(F)C(F)(F)C(F)(F)Br,1.68
11,FC(Cl)(Cl)OC(F)(F)C(F)(F)Cl,1.36
12,FCOC(F)(F)C(C(F)(F)F)C(F)(F)F,1.43
13,FC(F)(F)c1cc(C(F)(F)F)cc(C(F)(F)F)c1,1.85
14,FC(C(F)C(F)(F)C(F)(F)C(F)(F)F)C(F)(F)F (centres undefined),2.31
15,FC(F)(Cl)OC(F)(F)C(F)(F)Cl,0.68
16,FC(F)(Cl)OC(F)(F)C(F)(Cl)Cl,1.52
17,FC(F)(F)C(F)(Br)C(F)(F)F,0.13
18,FC(F)(F)C(F)(Cl)C(F)(Cl)C(F)(F)F (centres undefined),1.04
19,COC(F)(F)C(F)(C(F)(F)F)C(F)(F)F,0.67
20,FC(F)(Cl)C(F)(Cl)Cl,1.36
21,Fc1ccc(F)cc1,2.22
22,COC(F)(F)C(F)(F)C(F)(F)C(F)(F)F,0.67

row,Compound,log(1/CON)
1,FC(F)C(F)(F)C(F)(F)C(F)(F)F,0.12
2,FC1(F)C(F)(F)[C@@](F)(Cl)[C@@]1(F)Cl,1.41
3,FC(F)(F)C(F)(F)C(F)(F)Br,0.03
4,FC(F)(Cl)OC(Cl)(Cl)C(F)(F)F,1.61
5,FC(F)(F)COC(F)(F)F,0.66
6,FC(F)OC(F)(C(F)F)C(F)(F)F (centres undefined),1.25
7,FC1(F)C(F)(F)C(F)(Cl)C1(F)Cl (racemic),1.26
8,FC1(F)C(F)(F)[C@@](F)(Cl)[C@]1(F)Cl (relative stereo),1.19
9,FC(F)(F)C(F)(F)Br [BROMOPENTAFLUOROETHANE],0.02
10,FC(F)(F)C(F)(F)Cl [CHLOROPENTAFLUOROETHANE],-0.32
11,C1CCCCCC1 [CYCLOHEPTANE],2.34
12,C1CCCCC1 [CYCLOHEXANE],1.66
13,C1CCCCCCC1 [CYCLOOCTANE],2.82
14,FC(F)(Br)Br [DIBROMODIFLUOROMETHANE],1.59
15,FC(F)(Cl)C(F)(F)Cl [DICHLOROTETRAFLUOROETHANE],0.41
16,FC(F)(F)COCC(F)(F)F [FLUROTHYL],2.81
17,CCCCCCCCC [NONANE],2.8
18,CCCCCCCC [OCTANE],2.18
19,CCCCC [PENTANE],1.16
20,FC1(F)C(F)(F)C(F)(F)C1(F)F [PERFLUOROCYCLOBUTANE],0.01
21,Fc1c(F)c(F)c(C(F)(F)F)c(F)c1F [PERFLUOROTOLUENE],3.46
22,FC(F)(F)C(F)(F)C(F)(F)F [PERFLUTREN],-0.88
